Tested on: eNOS promoter
Assay: Activation of eNOS transcription (eNOS promoter firefly luciferase reporter)
Type: cell-based
Conditions: EC50 of transcription induction ratio (TIR) vs compound concentration, determined graphically; stably transfected human endothelial cell line, 18 h incubation
Procedure: Activation of eNOS transcription was measured as described in detail in Li et al. “Activation of protein kinase C alpha and/or epsilon enhances transcription of the human endothelial nitric oxide synthase gene”, Mol. Pharmacol. 1998; 53: 630-637. Briefly, a 3.5 kB long fragment 5′ of the starting codon of the eNOS gene was cloned, sequenced and cloned in firefly luciferase expression plasmids to monitor activation of the eNOS promoter by reporter gene activity. A human endothelial cell line stable transfected and expressing this promoter-reporter construct was used for compound testing. Cells were incubated for 18 h with compounds.
All compounds were dissolved in sterile DMSO. A final concentration of 0.5% DMSO in complete medium was allowed. Induction of reporter gene expression in these cells was measured using a standard luciferase assay system (Promega, Cat. No E150) according to the manufacturer's instructions. Luciferase induction in cells incubated with compounds were compared to those incubated with solvent alone. The ratio of both activities (transcription induction ratio, TIR) was plotted as a function of compound concentration. Typically, TIR values started at low concentrations at a ratio of 1, indicating no compound effect, and extended up to a maximum TIR value TIR(max) which indicates the increase of the eNOS transcription. EC50 values of transcription induction ratios as a function of compound concentration were determined graphically.

| EC50 [µM] | Structure (SMILES) |
| --- | --- |
| 6 | COc1cccc2c1CC[C@H](NC(=O)c1ccc(F)cc1)C2 [Compound 7, (S)-N-(5-Methoxy-1,2,3,4-tetrahydro-naphth-2-yl)-4-fluoro-benzamide] |
| 81.8 | Cc1nc(C)c(C(=O)N[C@H]2CCc3ccccc3C2)s1 [Compound 30, 2,4-Dimethyl-thiazole-5-carboxylic acid N-(S)-(1,2,3,4-tetrahydro-naphthalen-2-yl)-amide] |
| 14.9 | Cc1cnc(C(=O)N[C@@H]2CCc3ccccc3C2)cn1 [Compound 35, 5-Methyl-pyrazine-2-carboxylic acid N-(R)-(1,2,3,4-tetrahydro-naphthalen-2-yl)-amide] |
| 10.9 | Cc1ccc(C(=O)N[C@@H]2CCc3ccccc3C2)cn1 [Compound 19, 6-Methyl-N-(R)-1,2,3,4-tetrahydro-naphthalen-2-yl-nicotinamide] |
| 16.3 | Cc1nc(C(F)(F)F)ccc1C(=O)N[C@@H]1CCc2ccccc2C1 [Compound 54, 2-Methyl-N-(R)-1,2,3,4-tetrahydro-naphthalen-2-yl-6-trifluoromethyl-nicotinamide] |
| 1.6 | O=C(N[C@H]1CCc2ccccc2C1)c1ccc(C(F)(F)F)nc1 [Compound 51, N-(S)-1,2,3,4-Tetrahydro-naphthalen-2-yl-6-trifluoromethyl-nicotinamide] |
| 1.96 | Nc1ncccc1C(=O)N[C@@H]1CCc2ccccc2C1 [Compound 17, 2-Amino-N-(R)-1,2,3,4-tetrahydro-naphthalen-2-yl-nicotinamide] |
| 9.56 | CN(C)c1cccc(C(=O)N[C@@H]2CCc3ccccc3C2)c1 [Compound 10, 3-Dimethylamino-N-(R)-1,2,3,4-tetrahydro-naphthalen-2-yl-benzamide] |
| 0.41 | Cc1nc(C(F)(F)F)c(C(=O)N[C@H]2CCc3ccccc3C2)s1 [Compound 46, 2-Methyl-4-trifluoromethyl-thiazole-5-carboxylic acid-N-(S)-(1,2,3,4-tetrahydro-naphthalen-2-yl)-amide] |
| 28.3 | Cc1ccc(C(=O)N[C@@H]2CCc3ccccc3C2)c(Cl)n1 [Compound 39, 2-Chloro-6-methyl-N-(R)-1,2,3,4-tetrahydro-naphthalen-2-yl-nicotinamide] |
| 0.18 | Cc1ncccc1C(=O)N[C@@H]1CCc2ccccc2C1 [Compound 27, 2-Methyl-N-(R)-1,2,3,4-tetrahydro-naphthalen-2-yl-nicotinamide] |
| 5.93 | O=C(N[C@@H]1CCc2ccccc2C1)c1ccc(Cl)nc1 [Compound 14, 6-Chloro-N-(R)-1,2,3,4-tetrahydro-naphthalen-2-yl-nicotinamide] |
| 0.3 | O=C(N[C@H]1CCc2ccccc2C1)c1cncc(-c2cccs2)c1 [Compound 63, N-(S)-1,2,3,4-Tetrahydro-naphthalen-2-yl-5-thiophen-2-yl-nicotinamide] |
| > 30 | O=C(N[C@@H]1CCc2cccc(Br)c2C1)c1ccc(F)cc1 [Compound 4, (R)-N-(8-Bromo-1,2,3,4-tetrahydro-naphth-2-yl)-4-fluoro-benzamide] |
| 11.5 | O=C(N[C@@H]1CCc2ccccc2C1)c1ccc2[nH]cnc2c1 [Compound 23, 1H-Benzoimidazole-5-carboxylic acid N-(R)-(1,2,3,4-tetrahydro-naphthalen-2-yl)-amide] |
| 10 | O=C(N[C@H]1CCc2cccc(Br)c2C1)c1ccc(F)cc1 [Compound 5, (S)-N-(8-Bromo-1,2,3,4-tetrahydro-naphth-2-yl)-4-fluoro-benzamide] |

| EC50 [µM] | Structure (SMILES) |
| --- | --- |
| 2.2 | O=C(NC1CCc2ccccc2C1)c1ccc(F)cc1 (centres unmarked) [Compound 1, 4-Fluoro-N-(1,2,3,4-tetrahydro-naphth-2-yl)-benzamide] |
| 1.5 | COc1cccc2c1CC[C@@H](NC(=O)c1ccc(F)cc1)C2 [Compound 6, (R)-N-(5-Methoxy-1,2,3,4-tetrahydro-naphth-2-yl)-4-fluoro-benzamide] |
| 10.9 | Cc1c(C(=O)N[C@@H]2CCc3ccccc3C2)cnn1-c1ccccc1 [Compound 31, 5-Methyl-1-phenyl-1H-pyrazole-4-carboxylic acid N-(R)-(1,2,3,4-tetrahydro-naphthalen-2-yl)-amide] |
| 9.97 | O=C(N[C@H]1CCc2ccccc2C1)c1cnn(-c2ccc(Cl)cc2)c1C(F)(F)F [Compound 34, 1-(4-Chloro-phenyl)-5-trifluoromethyl-1H-pyrazole-4-carboxylic acid N-(S)-(1,2,3,4-tetrahydro-naphthalen-2-yl)-amide] |
| 15.6 | O=C(N[C@@H]1CCc2ccccc2C1)c1ccc2cc[nH]c2c1 [Compound 48, 1H-Indole-6-carboxylic acid N-(R)-(1,2,3,4-tetrahydro-naphthalen-2-yl)-amide] |
| 0.29 | Cc1nc(C(F)(F)F)c(C(=O)N[C@@H]2CCc3ccccc3C2)s1 [Compound 45, 2-Methyl-4-trifluoromethyl-thiazole-5-carboxylic acid N-(R)-(1,2,3,4-tetrahydro-naphthalen-2-yl)-amide] |
| 0.5 | N#Cc1ccc(C(=O)N[C@H]2CCc3ccccc3C2)cn1 [Compound 57, 6-Cyano-N-(S)-1,2,3,4-tetrahydro-naphthalen-2-yl-nicotinamide] |
| 23.5 | CCCc1c(C(=O)N[C@H]2CCc3ccccc3C2)cnn1-c1cc(Cl)cc(Cl)c1 [Compound 67, 1-(3,5-Dichloro-phenyl)-5-propyl-1H-pyrazole-4-carboxylic acid N-(S)-(1,2,3,4-tetrahydro-naphthalen-2-yl)-amide] |
| 1.13 | Cc1c(C(=O)N[C@H]2CCc3ccccc3C2)cnn1-c1ccccc1 [Compound 32, 5-Methyl-1-phenyl-1H-pyrazole-4-carboxylic acid N-(S)-(1,2,3,4-tetrahydro-naphthalen-2-yl)-amide] |
| 0.19 | O=C(N[C@H]1CCc2ccccc2C1)c1ccncc1 [Compound 69, (S)-N-(1,2,3,4-Tetrahydro-naphthalen-2-yl)-isonicotinamide] |
| 20.6 | Cc1cc(C)c(C(=O)N[C@@H]2CCc3ccccc3C2)c(N)n1 [Compound 43, 2-Amino-4,6-dimethyl-N-(R)-1,2,3,4-tetrahydro-naphthalen-2-yl-nicotinamide] |
| 5.86 | CCCc1c(C(=O)N[C@@H]2CCc3ccccc3C2)cnn1-c1cc(Cl)cc(Cl)c1 [Compound 66, 1-(3,5-Dichloro-phenyl)-5-propyl-1H-pyrazole-4-carboxylic acid N-(R)-(1,2,3,4-tetrahydro-naphthalen-2-yl)-amide] |
| 20.4 | Cc1nc(-c2ccccc2)sc1C(=O)N[C@@H]1CCc2ccccc2C1 [Compound 41, 4-Methyl-2-phenyl-thiazole-5-carboxylic acid N-(R)-(1,2,3,4-tetrahydro-naphthalen-2-yl)-amide] |
| 12.8 | CN(C)c1cccc(C(=O)N[C@H]2CCc3ccccc3C2)c1 [Compound 11, 3-Dimethylamino-N-(S)-1,2,3,4-tetrahydro-naphthalen-2-yl-benzamide] |
| 2.75 | N#Cc1ccc(C(=O)N[C@@H]2CCc3ccccc3C2)cn1 [Compound 56, 6-Cyano-N-(R)-1,2,3,4-tetrahydro-naphthalen-2-yl-nicotinamide] |
| 13.6 | Cc1ccc(C(=O)N[C@H]2CCc3ccccc3C2)c(Cl)n1 [Compound 40, 2-Chloro-6-methyl-N-(S)-1,2,3,4-tetrahydro-naphthalen-2-yl-nicotinamide] |

Reference: US6949556B2, “Acylated 1,2,3,4-tetrahydronaphthyl amines and their use as pharmaceutical agents” (Aventis Pharma Deutschland GmbH, priority 2001, dated 2005)
